Measured values from BindingDB's records for doi:10.1016/S0960-894X(01)80865-9 (1993).

Target: S-adenosylmethionine decarboxylase proenzyme (Escherichia coli) (UniProt P0A7F6)
Assay: Tested for irreversible inhibitory activity against AdoMet-DC (S-adenosyl-methionine decarboxylase-) isolated from Escherichia coli

S-adenosylmethionine decarboxylase proenzyme (Escherichia coli), sequence (P0A7F6 whole entry, looked up): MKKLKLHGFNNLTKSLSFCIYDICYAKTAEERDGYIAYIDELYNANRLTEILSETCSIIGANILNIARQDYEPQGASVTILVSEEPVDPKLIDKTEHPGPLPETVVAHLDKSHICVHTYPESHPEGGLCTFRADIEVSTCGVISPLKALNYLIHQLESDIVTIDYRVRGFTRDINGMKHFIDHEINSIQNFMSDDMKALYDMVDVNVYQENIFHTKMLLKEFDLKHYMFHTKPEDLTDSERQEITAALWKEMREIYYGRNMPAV

SMILES | Ki
Nc1ncnc2c1ncn2[C@@H]1O[C@H](CS[C@@H]2CN[C@H](C(=O)O)C2)[C@@H](O)[C@H]1O | 478 µM
C[S+](C[C@H]1O[C@@H](n2cnc3c(N)ncnc32)[C@H](O)[C@@H]1O)C1C=C[C@H](N)C1 (stereo not given in full) | 18 µM

Now from value to compound:

Ki | SMILES
415 µM | Nc1ncnc2c1ncn2[C@@H]1O[C@H](CSC2CCNC2)[C@@H](O)[C@H]1O (stereo not given in full)
669 µM | C[S+](C[C@H]1O[C@@H](n2cnc3c(N)ncnc32)[C@H](O)[C@@H]1O)C1CCNC1 (stereo not given in full)
960 µM | Nc1ncnc2c1ncn2[C@@H]1O[C@H](CS[C@H]2CN[C@H](C(=O)O)C2)[C@@H](O)[C@H]1O
